The record followed here is BindingDB's records for doi:10.1021/jm00004a013 (Solvay Pharma, 1995).

The assay addresses Polyunsaturated fatty acid 5-lipoxygenase (Cavia porcellus). The assay is described as follows: Inhibitory activity against partially-purified Guinea pig PMN 5-lipoxygenase.

For `Cc1ccnc(N2CCN(CCc3c(C)n4c5c(cc(O)cc35)CCC4)CC2)c1` [2-Methyl-1-{2-[4-(4-methyl-pyridin-2-yl)-piperazin-1-yl]-ethyl}-5,6-dihydro-4H-pyrrolo[3,2,1-ij]quinolin-8-ol], the IC50 (commonly the point on the concentration scale where inhibition reaches its midpoint) turned out to be 2800 nM.
